# Laboratory results published in US20100099762A1, “COMBINATION THERAPY” (THE MENTAL HEALTH RESEARCH INSTITUTE OF VICTORIA, priority 2006, published 2010).
# Entries after “also recorded” stand apart in the source; their conditions may differ.
# Test system: total glutathione levels
# Test: Total glutathione in striatum and liver of rats after CHX depletion
# Type: in vivo, Sprague-Dawley rats
# Conditions: CHX 75 mg/kg i.p.
# Procedure: Male Sprague-Dawley rats aged nine weeks and weighing an average of 390 g, were used in the study. Animals were maintained on a twelve hour light-dark cycle with water and food ad libitum. Two animals were housed per cage with room temperature maintained at 22° C.
# All pharmacological agents were administered by intraperitoneal injection (i.p.) in a volume of 1 ml/kg, except where otherwise stated. All agents were prepared using saline as a diluent. Brain GSH depletion was performed using cyclohexene-1-one (CHX), administered at 75 mg/kg. Animals were returned to their cage for 90 minutes prior to administration of N-acetyl cysteine (NAC) or N-acetyl cysteine amide (NACA or “AD4”). Animals were killed by decapitation 1 hour after NACA or NAC treatment.
# Frontal cortex, striatum and liver samples were immediately excised on ice, weighed and sonicated in SSA buffer (5% sulfosalicylic acid in 100 mM disodium hydrogen orthophosphate, 100 mM sodium dihydrogen orthophosphate and 1 mM EDTA, pH 7.5, 5 mL/g wet tissue). The samples were subsequently centrifuged (22×10^3 g for 10 minutes, 4° C.) and the […] was taken and frozen at −80° C. until analysed.
# Total glutathione levels (μmol GSH/gram tissue) were determined in all samples. Samples were assayed according to Baker et al. (1990). Reduced glutathione standards ranging from 0 to 320 ρmol of GSH in 50 μL were prepared in a background buffer identical to the samples (SSA buffer) and then treated in parallel with samples. 50 μl of sample or standard was placed on a 96-well microtiter plate with 100 μL of assay reagent (final concentration in well; 0.15 mM DTNB, 0.2 mM NADPH, 1.0 U glutathione reductase/mL). Plates were assayed for a total of 2 minutes at 414 nm using a Multiskan MCC/340 MK II plate reader and Genesis V3.05 computer software. All chemicals were purchased from Sigma-Aldrich. Statistical evaluation of the data was conducted using analysis of variance (ANOVA).
structure (smiles),measurement,value
"O=C1C=CCCC1 [CHX, cyclohexene-1-one]",Total glutathione levels in the brain striatum,significant decrease; also recorded: depleted
same,Total glutathione levels in the liver,significant decrease; also recorded: depleted
